Source: patent publication US20210228500A1, “CELLULAR RETINOID BINDING PROTEIN ANTAGONISTS AND USES THEREOF” (CASE WESTERN RESRVE UNIVERSITY, priority 2018, published 2021)
“Also recorded” adds a separate entry of the source.

Legend:
CRBP2 = molecular target: T1, CRBP2 (Homo sapiens, UniProt P50120); assay: Fluorescence-binding assay with CRBP2
T1 construct: 6x histidine tag (C, cleaved yes); thrombin cut site (residual residues after digestion) (C); made in house; host or cells: E. coli BL21 (DE3)
T1 sequence (P50120 1-134): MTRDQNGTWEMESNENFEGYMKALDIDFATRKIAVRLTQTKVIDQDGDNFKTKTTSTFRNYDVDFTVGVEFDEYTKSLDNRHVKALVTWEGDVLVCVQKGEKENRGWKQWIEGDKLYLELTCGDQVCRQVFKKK

CRBP3 = molecular target: T2, CRBP3 (Homo sapiens, UniProt P82980); assay: Crystal structure of CRBP3 in complex with abn-CBD; type: binding; settings: crystal structure PDB No. 6E5W
T2 construct: thrombin cut site (residual residues after digestion) (C); 6x histidine tag (C, cleaved yes); made in house; host or cells: E. coli BL21 (DE3) (as for CRBP2)
T2 sequence (P82980 1-135): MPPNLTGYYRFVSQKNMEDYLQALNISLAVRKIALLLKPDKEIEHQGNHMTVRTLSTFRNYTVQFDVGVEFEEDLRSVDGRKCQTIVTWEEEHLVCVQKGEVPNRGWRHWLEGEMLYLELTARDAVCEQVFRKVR
Procedure: The cDNA of human CRBP3 was purchased from Origene Technologies. To introduce a thrombin cut site at the C-terminus of the protein, the cDNA was amplified by PCR and subcloned into pET30b vector. The next steps of the expression and purification of CRBP3 were identical to the procedure described above for CRBP2.
Crystals of CRBP1 in complex abn-CBD and its derivatives (abn-CBDO or CBDO) were grown essentially as described by Silvaroli et al (ACS Chem Biol. 2019, 15; 14(3)). The apo protein at 3 mg mL-1 was preincubated with 300 μM of a ligand in 10 mM Tris-HCl buffer, pH 8.0, 150 mM NaCl for 15 min on ice. This sample (1 μL) was mixed in 1:1 ratio with a crystallization solution composed of 0.1 M BisTris, pH 5.5, and 25% poly(ethylene glycol) (PEG) 3350 (w/v). Crystals of CRBP3 with abn-CBD were obtained by preincubating apoprotein at 8 mg mL-1 with 300 μM of the ligand for 15 min and setting up crystallization drops by mixing 1 μL of the protein sample with 1 μL of 0.2 M sodium malonate, pH 5.0 and 20% PEG 3350 (w/v) solution. For CRBP4, the crystallization conditions included 0.2 M NaCl, 0.1 M BisTris, pH 6.5, and 25% PEG 3350 (w/v). Similar to the other CRBPs, CRBP4 (6 mg mL^−1) was preincubated with abn-CBD prior to the crystallization. All of the protein crystals were obtained by the sitting drop vapor diffusion method at RT. […]

Balb/cJ mice = assay: Light-induced retinal degeneration (OCT, H&E histology); type: in vivo
Procedure: Retinal degeneration was induced by exposing dark-adapted Balb/cJ mice to white light with an intensity of ˜50 000 l×, delivered from a 100 W AC90-145 V lightemitting diode (LED) lamp (Home Depot) for 1 h. Abn-CBD in doses of 30, 15, or 7.5 mg kg^−1 was administered by i.p. injection in sterilized 80% DMSO/water (v/v) 1 h before exposure to bright light. […] Retinal morphology was analyzed in vivo by OCT 7 d after the light exposure. Then the mice were euthanized, and their eyes were subjected to staining with H&E staining and imaging.
To assess the effect of abn-CBD on light-induced retinal degeneration in Balb/cJ mice, the retinas were examined by ultrahigh resolution OCT (Bioptigen). Pupils of mice were first dilated with 1% tropicamide, and the animals were anesthetized with ketamine/xylazine cocktail. Twenty-five frames of OCT images scanned at 0° and 90° were acquired in the B-scan and averaged.
The structural morphology of mouse retinas challenged with bright light were assessed using H&E staining of paraffin sections. Mouse eyes were fixed in 4% paraformaldehyde and 1% glutaraldehyde followed by paraffin sectioning. Paraffin sections (5 μm thick) were stained with H&E and imaged by light microscopy (Leica).

SMILES: C=C(C)[C@@H]1CCC(C)=C[C@H]1c1c(O)cc(O)cc1CCCCC [abn-CBD, 4-[(1R,6R)-3-Methyl-6-prop-1-en-2-ylcyclohex-2-en-1-yl]-5-pentylbenzene-1,3-diol]
- interaction with CRBP2 (CRBP2): does not interact; also recorded: absence of interaction
- binding to CRBP3 (CRBP3): bind abn-CBD similarly to CRBP1
- retinal histology (H&E) after light exposure (Balb/cJ mice; 7 d post illumination): protective effect; also recorded: partial preservation of the photoreceptor cells
- dose causing 50% of maximum effect (ED50), protection against light-induced retinal damage (Balb/cJ mice; i.p. before bright light, OCT (ONL thickness) 7 d later, estimated): ~15 mg/kg
- protection against light-induced retinal damage (OCT retinal morphology) (Balb/cJ mice; i.p. before bright light, OCT a week later): largely protected; also recorded: protective effect
